Assays:
human TM cells = assay: Fibronectin immunoblot in TGFβ-stimulated TM cells; format: cell-based; settings: 2.5 ng/ml TGFβ, 0-100 μM, 24 hours
[1] = Microbead model of glaucoma in rats; format: in vivo, Sprague Dawley rat; settings: ocular treatment vs vehicle-treated eyes
Method: The different markers of RGC dysfunction are examined in a rat model of glaucoma where latex microspheres are injected into the anterior chamber of the eye to block outflow through the TM. In Sprague Dawley rat RGC loss is 20%-30% over a 4-6 weeks period when 20 μL of beads are injected weekly. This severe model is used to start to determine the amount of API in the retina 1 hour after topical installation of the API/latanoprost combination. Rats are topically dosed with API/Latanoprost for a week after microbead injection, a time when IOP is elevated. The right eyes serve as non-glaucomatous controls.
BIII tubulin expression is decreased in RGCs in glaucoma (Soto et al. 2008 J Neurosci. 28(2): p. 548-561). Loss of BIII tubulin is a biomarker of early RGC degeneration. […] BIII tubulin is observed in radial sections, and RGCs identified by labeling with Brin3. For quantitative comparisons, control and treated radial cryostat sections are cut in the same block and mounted on the same slide, and labeled together with BIII isotype-specific antibodies.
ROCK activation is examined in the same microbead model of glaucoma in rats 4 weeks after daily topical dosing in rats with left and right eyes injected with beads. API alone or API+Latanoprost are delivered once daily by 15 μL eye drop instilled into the left eyes (glaucoma/treated) and right eyes left untreated (glaucoma/untreated). […]

retinal ganglion cells = assay: RGC dendritic arbor in Hb9-GFP glaucoma mice; format: in vivo; settings: 1 month, weekly microbead injection, daily eye drops
Source text: To evaluate changes in the RGC dendritic arbor in glaucoma and the ability of the API to prevent neuronal loss in the retina, mice are used which carry an enhanced GFP (eGFP) driven by the Hb9 promoter (B6.Cg-Tg(Hlxb9-GFP)1Tmj/J; Jackson Labs), which directs GFP expression to the on-off direction-sensitive ganglion cell (ooDSGC) sub-population of retinal ganglion cells (Trenholm et al. 2011 Neuron. 71(4): p. 683-694). These mice allow visualization of non-overlapping RGCs for unambiguous identification of individual dendritic arbors. Treated and control glaucoma eyes are examined, as well as normal eyes 1 month after weekly microbead injection and daily eye drops. The eyes are fixed by perfusion and prepared for retinal whole mounts, and the labeled ganglion cells visualized by fluorescence microscopy. Images are imported into ImageJ and analyzed for dendritic field area (using the polygon tool to join points along the perimeter of the field) and subjected to Sholl analysis using the plugin for Image J to be able to characterize dendritic branching and complexity of normal, glaucoma/treated and glaucoma/control RGCs.

[2] = test system: rat midbrain dopaminergic neurons; assay: MPP+ toxicity in cultured midbrain dopaminergic neurons; format: cell-based; settings: 0.25-50 μM, 20 μM MPP+, 48 hours
Method: These in vitro experiments are conducted using primary cultures of embryonic rat midbrain dopaminergic neurons. MPP+ is known to cause the death of cultured midbrain dopaminergic neurons. Rho kinase and Abl kinase inhibitors are tested individually at varying concentrations for their ability to prevent MPP+-induced cell death.
Primary cultures of rat midbrain dopaminergic neurons are established from cells acutely isolated from the ventral midbrain of embryonic day 14 rats (Charles River; Wilmington, Mass.). The cells are plated in serum-free conditions (Neurobasal plus B-27 Supplements; Thermo-Fisher; Waltham, Mass.) onto glass coverslips coated with poly-ornithine and laminin as attachment factors. Cells are cultured overnight on the coated coverslips in a 37° C./5% CO2 tissue culture incubator prior to the initiation of the varying treatments.
On day 3 after plating, MPP+(Sigma Chemical; St. Louis, Mo.) is added to the medium at 20 μM final concentration. The cultures are allowed to continue for an additional 48 hours. At the end of the culture period, the cells are washed, and then fixed with 4% paraformaldehyde solution prior to permeabilization and blocking with 10% normal goat serum in PBS. […] Specimens are examined using fluorescence microscopy and the numbers of TH-positive neurons with non-pyknotic nuclei are counted in 6 to 8 high power fields per specimen.

[3] = test system: midbrain dopaminergic neurons; assay: MPTP mouse model; format: in vivo, C57BL/6 mice; settings: 10 or 100 mg/kg per day in drinking water, 14 days
Source text: Previous studies have shown that this compound causes the overactivation of the c-Abl non-receptor tyrosine kinase in these neurons, which then phosphorylates the Parkin E3 ubiquitin ligase leading to its inactivation (Ko et al., Proc. Nat. Acad. Sci. USA; 2010; 107:16691). Additionally, this neurotoxin is also known to cause the activation of Rho kinase (ROCK) in the brain when administered to animals (Rodriguez-Perez et al., Neurobiol. Dis., 2013; 58:209).
Different cohorts of adult C57BL/6 mice (Charles River; Wilmington, Mass.) (8 to 10 per group) receive intraperitoneal injections of either vehicle or 30 mg/kg of MPTP (Sigma; St. Louis, Mo.) dissolved in 0.9% saline for 5 consecutive days. This sub-acute/chronic treatment regimen typically leads to the death of 40 to 50% of midbrain dopaminergic neurons of the substantia nigra within 1 to 2 weeks (Meredith and Rademacher; J Parkinsons Dis.; 2011; 1(1):19).
The cohorts are carried forward for 14 days. On the final 2 days of the treatment paradigm, mouse cohorts are subjected to behavioral testing using the accelerated rotarod on one day or grid-walking test on the other day. At completion of the final behavioral test, animals are deeply anesthetized and then perfused transcardially with 4% paraformaldehyde in phosphate buffer. Brains are removed from the craniums and post-fixed for 1-2 hours. The brains are then immersed in 30% sucrose for cryo-protection. Whole coronal sections (20-25 μm thick) through the midbrain region containing the substantia nigra are obtained for each animal and thaw mounted onto SuperFost Plus slides (Thermo-Fisher). Individual sections are reacted with rabbit anti-tyrosine hydroxylase (TH) antibody (EMD-Millipore) overnight in PBS containing 0.05% Triton X-100 and 10% normal goat serum. After washing in PBS/Triton-X-100 multiple times, sections are reacted with […] goat anti-rabbit secondary antibody. Following another round of washing, the slides are reacted with Vecta Stain Elite ABC kit for DAB-enhanced peroxidase detection (Vector Labs; Burlingame, Calif.). Following peroxidase reaction, the sections are subjected to Nissl staining to label all cell types as a counterstain. The sections are then coverslipped in permanent mounting media.
Sections are examined by visible microscopy and photographic images captured. The number of TH positive neurons are estimated in the series of images by unbiased stereological analysis using Stereo Investigator. Numbers of TH-positive neurons per area of the substantia nigra are determined and statistical analyses performed to compare between, control untreated, MPTP/no treatment, MPTP/inhibitor treatments.

SMILES | Fibronectin levels (human TM cells) | BIII tubulin immunostaining in glaucoma eyes [1] | Retinal ganglion cell dendritic arbors (retinal ganglion cells) | Number of surviving TH-positive neurons [2] | Cell loss in substantia nigra [3] | Motor function in behavioral testing [3]
C[C@H](N)C1CCN(S(=O)(=O)c2cccc3c(=O)[nH]ccc23)CC1 [BA-2057] | more potent in decreasing fibronectin deposition than BA-1076 | prevents the loss of BIII tubulin immunostaining | protect and/or restore retinal ganglion cell dendritic arbors | dose-dependent increase in the number of surviving neurons | prevent a significant percentage of the cell loss | improved motor function
C[C@H](N)C1CCN(S(=O)(=O)c2cccc3cnccc23)CC1 [BA-1076] | Fibronectin levels decreased dose-dependently | prevents the loss of BIII tubulin immunostaining | protect and/or restore retinal ganglion cell dendritic arbors | dose-dependent increase in the number of surviving neurons | prevent a significant percentage of the cell loss | improved motor function

Reference: patent publication US10537567B2, “Kinase inhibitors for treatment of disease” (BioAxone BioSciences, Inc., priority 2017, dated 2020)
